Data set [1] relates to Staphylococcus aureus. Put plainly: Antibacterial activity against methicillin-sensitive Staphylococcus aureus MSSA17-3 measured by liquid dilution method. It is filed as functional.
The subject of data set [2] is Staphylococcus aureus. Put plainly: Antibacterial activity against vancomycin-intermediate Staphylococcus aureus ATCC 700699 measured by liquid dilution method. Format: functional.
The test system of data set [3] is Enterococcus faecium. Description: Antibacterial activity against Enterococcus faecium EFM17-1 measured by liquid dilution method. It is filed as functional.
The subject of data set [4] is Enterococcus faecalis. Put plainly: Antibacterial activity against Enterococcus faecalis ATCC 29212 measured by liquid dilution method. It is filed as functional.
For data set [5], the system named is Staphylococcus epidermidis. Description: Antibacterial activity against methicillin-sensitive Staphylococcus epidermidis MSSE17-3 measured by liquid dilution method. Format: functional.
Data set [6] relates to Staphylococcus epidermidis. Put plainly: Antibacterial activity against methicillin-sensitive Staphylococcus epidermidis MSSE17-1 measured by liquid dilution method. Format: functional.
Data set [7] relates to Staphylococcus aureus. Put plainly: Antibacterial activity against methicillin-resistant Staphylococcus aureus MRSA17-3 measured by liquid dilution method. It is filed as functional.
Data set [8] relates to Staphylococcus aureus. Put plainly: Antibacterial activity against methicillin-resistant Staphylococcus aureus ATCC 33591 measured by liquid dilution method. It is filed as functional.
Data set [9] relates to Staphylococcus epidermidis. Put plainly: Antibacterial activity against methicillin-resistant Staphylococcus epidermidis MRSE17-2 measured by liquid dilution method. Format: functional.
Data set [10] relates to Staphylococcus aureus. Description: Antibacterial activity against vancomycin-intermediate Staphylococcus aureus ATCC 700788 measured by liquid dilution method. It is filed as functional.
Data set [11] concerns Staphylococcus epidermidis. Put plainly: Antibacterial activity against methicillin-resistant Staphylococcus epidermidis MRSE17-6 measured by liquid dilution method. It is filed as functional.
In data set [12] the test system is Staphylococcus epidermidis. Put plainly: Antibacterial activity against methicillin-resistant Staphylococcus epidermidis MRSE17-4 measured by liquid dilution method. It is filed as functional.
The subject of data set [13] is Staphylococcus aureus. Put plainly: Antibacterial activity against Staphylococcus aureus ATCC 29213 measured by liquid dilution method. It is filed as functional.
The test system of data set [14] is Staphylococcus aureus. Put plainly: Antibacterial activity against methicillin-sensitive Staphylococcus aureus MSSA17-1 measured by liquid dilution method. Format: functional.
The subject of data set [15] is Staphylococcus aureus. Put plainly: Antibacterial activity against methicillin-resistant Staphylococcus aureus ATCC 43300 measured by liquid dilution method. It is filed as functional.
Data set [16] has as its system Staphylococcus epidermidis. Description: Antibacterial activity against methicillin-resistant Staphylococcus epidermidis MRSE17-3 measured by liquid dilution method. Format: functional.
In data set [17] the test system is Staphylococcus aureus. Description: Antibacterial activity against methicillin-resistant Staphylococcus aureus MRSA17-1 measured by liquid dilution method. It is filed as functional.
Data set [18] concerns Enterococcus faecalis. Description: Antibacterial activity against Enterococcus faecalis EFA17-1 measured by liquid dilution method. Format: functional.
Data set [19] relates to Staphylococcus aureus. Put plainly: Antibacterial activity against methicillin-resistant Staphylococcus aureus MRSA17-2 measured by liquid dilution method. It is filed as functional.
Data set [20] deals with Enterococcus faecium. Description: Antibacterial activity against Enterococcus faecium EFM17-2 measured by liquid dilution method. Format: functional.
The test system of data set [21] is Staphylococcus epidermidis. Put plainly: Antibacterial activity against methicillin-sensitive Staphylococcus epidermidis MSSE17-2 measured by liquid dilution method. Format: functional.
The test system of data set [22] is Staphylococcus aureus. Description: Antibacterial activity against methicillin-sensitive Staphylococcus aureus MSSA17-2 measured by liquid dilution method. Format: functional.
Data set [23] deals with Staphylococcus epidermidis. Put plainly: Antibacterial activity against methicillin-resistant Staphylococcus epidermidis MRSE17-1 measured by liquid dilution method. It is filed as functional.
For data set [24], the system named is Staphylococcus aureus. Put plainly: Antibacterial activity against methicillin-resistant Staphylococcus aureus MRSA17-5 measured by liquid dilution method. It is filed as functional.
Data set [25] concerns Staphylococcus aureus. Description: Antibacterial activity against methicillin-resistant Staphylococcus aureus MRSA17-6 measured by liquid dilution method. Format: functional.
A short description of data set [26]: Plasma protein binding in CD-1 mouse plasma incubated for 4 hrs at 2 uM measured by LC/MS/MS analysis. It is filed as ADME, cell-free. As to conditions: read-out: PPB (converted).
Data set [27] can be described thus: Plasma protein binding in CD-1 mouse plasma incubated for 4 hrs and assessed as unbound fraction at 2 uM measured by LC/MS/MS analysis. Format: ADME, cell-free.

Each structure is given as a SMILES string. ≈ marks a conversion by molar mass, not a printed value.

As a reminder, the MIC is the lowest concentration found to suppress growth. Lower therefore signals inhibition by little substance. Regarding `CNC1=NC(=O)[C@@H]([C@@H](C)c2c[nH]c3cccc(C)c23)O1`, the MIC (with Staphylococcus aureus [1]; with Staphylococcus aureus [2]; with Enterococcus faecium [3]; in the data set with Enterococcus faecalis [4]; in data set [5]; in [6]) was over 128 µg/mL throughout. In addition, the MIC (against Staphylococcus aureus [7]; against Staphylococcus aureus [8]; in data set [9]; in the data set with Staphylococcus aureus [10]; in data set [11]; in data set [12]) was over 128 µg/mL throughout. In addition, the MIC (in the data set on Staphylococcus aureus [13]; with Staphylococcus aureus [14]; in the data set with Staphylococcus aureus [15]; in data set [16]; in the data set with Staphylococcus aureus [17]; in the data set on Enterococcus faecalis [18]) was over 128 µg/mL throughout. Besides, the MIC (with Staphylococcus aureus [19]; in the data set on Enterococcus faecium [20]; in data set [21]; in the data set on Staphylococcus aureus [22]; in data set [23]; in the data set on Staphylococcus aureus [24]) was over 128 µg/mL each time. For the same molecule, the MIC with Staphylococcus aureus [25] is over 128 µg/mL.

Take `CNC1=NC(=O)[C@@H]([C@@H](C)c2c[nH]c3cccc(Br)c23)O1`: the MIC was 128 µg/mL (≈ 381 µM) against Staphylococcus aureus [1]; 128 µg/mL (≈ 381 µM) against Staphylococcus aureus [2]; over 128 µg/mL against Enterococcus faecium [3]; over 128 µg/mL against Enterococcus faecalis [4]; 128 µg/mL (≈ 381 µM) in data set [5]; 128 µg/mL (≈ 381 µM) in data set [6]. Also, the MIC against Staphylococcus aureus [7] worked out at 64 µg/mL (≈ 190 µM); in the data set with Staphylococcus aureus [8], 128 µg/mL (≈ 381 µM); in [9] it was 128 µg/mL (≈ 381 µM); against Staphylococcus aureus [10], 128 µg/mL (≈ 381 µM); in data set [11], 128 µg/mL (≈ 381 µM); in data set [12], 128 µg/mL (≈ 381 µM). Moreover, the MIC is over 128 µg/mL with Staphylococcus aureus [13]; 128 µg/mL (≈ 381 µM) against Staphylococcus aureus [14]; 128 µg/mL (≈ 381 µM) with Staphylococcus aureus [15]; over 128 µg/mL in data set [16]; 128 µg/mL (≈ 381 µM) with Staphylococcus aureus [17]; over 128 µg/mL against Enterococcus faecalis [18]. Besides, the MIC in the data set on Staphylococcus aureus [19] was 128 µg/mL (≈ 381 µM); in the data set on Enterococcus faecium [20], over 128 µg/mL; in data set [21] it was 64 µg/mL (≈ 190 µM); against Staphylococcus aureus [22], 128 µg/mL (≈ 381 µM); in [23], over 128 µg/mL; against Staphylococcus aureus [24], 128 µg/mL (≈ 381 µM). In the data set with Staphylococcus aureus [25], this molecule registered an MIC of 128 µg/mL (≈ 381 µM).

With `CNC1=NC(=O)[C@@H]([C@@H](C)c2c[nH]c3c(F)cccc23)O1`, the MIC against Staphylococcus aureus [1] is 4 µg/mL (≈ 14.5 µM); in the data set with Staphylococcus aureus [2], over 128 µg/mL; against Enterococcus faecium [3], over 128 µg/mL; with Enterococcus faecalis [4] it was over 128 µg/mL; in data set [5] it was over 128 µg/mL; in [6] it was 32 µg/mL (≈ 116 µM). Also, the MIC with Staphylococcus aureus [7] was 8 µg/mL (≈ 29.1 µM); against Staphylococcus aureus [8], over 128 µg/mL; in [9], 1 µg/mL (≈ 3.63 µM); with Staphylococcus aureus [10] it was over 128 µg/mL; in [11], 2 µg/mL (≈ 7.27 µM); in data set [12], over 128 µg/mL. The MIC is over 128 µg/mL with Staphylococcus aureus [13]; 8 µg/mL (≈ 29.1 µM) in the data set with Staphylococcus aureus [14]; over 128 µg/mL in the data set with Staphylococcus aureus [15]; over 128 µg/mL in [16]; 8 µg/mL (≈ 29.1 µM) against Staphylococcus aureus [17]; over 128 µg/mL with Enterococcus faecalis [18]. The MIC is 8 µg/mL (≈ 29.1 µM) against Staphylococcus aureus [19]; over 128 µg/mL against Enterococcus faecium [20]; 2 µg/mL (≈ 7.27 µM) in data set [21]; 4 µg/mL (≈ 14.5 µM) in the data set on Staphylococcus aureus [22]; 4 µg/mL (≈ 14.5 µM) in [23]; 8 µg/mL (≈ 29.1 µM) against Staphylococcus aureus [24]. The molecule also returned an MIC in the data set on Staphylococcus aureus [25] of 8 µg/mL (≈ 29.1 µM).

Turning to `CNC1=NC(=O)[C@H]([C@H](C)c2c[nH]c3cc(F)ccc23)O1`, the MIC against Staphylococcus aureus [1] was 8 µg/mL (≈ 29.1 µM); against Staphylococcus aureus [2] it was 4 µg/mL (≈ 14.5 µM); against Enterococcus faecium [3] it was over 128 µg/mL; with Enterococcus faecalis [4], over 128 µg/mL; in data set [5], 8 µg/mL (≈ 29.1 µM); in [6], 8 µg/mL (≈ 29.1 µM). In addition, the MIC against Staphylococcus aureus [7] is 8 µg/mL (≈ 29.1 µM); in the data set on Staphylococcus aureus [8], 16 µg/mL (≈ 58.1 µM); in data set [9], 16 µg/mL (≈ 58.1 µM); with Staphylococcus aureus [10], 8 µg/mL (≈ 29.1 µM); in data set [11], 16 µg/mL (≈ 58.1 µM); in data set [12], 16 µg/mL (≈ 58.1 µM). The MIC in the data set on Staphylococcus aureus [13] is 16 µg/mL (≈ 58.1 µM); against Staphylococcus aureus [14], 16 µg/mL (≈ 58.1 µM); with Staphylococcus aureus [15], 8 µg/mL (≈ 29.1 µM); in [16], 4 µg/mL (≈ 14.5 µM); against Staphylococcus aureus [17], 8 µg/mL (≈ 29.1 µM); against Enterococcus faecalis [18], over 128 µg/mL. Further, the MIC against Staphylococcus aureus [19] was 8 µg/mL (≈ 29.1 µM); against Enterococcus faecium [20], over 128 µg/mL; in [21], 8 µg/mL (≈ 29.1 µM); in the data set with Staphylococcus aureus [22] it was 16 µg/mL (≈ 58.1 µM); in [23] it was 16 µg/mL (≈ 58.1 µM); against Staphylococcus aureus [24] it was 16 µg/mL (≈ 58.1 µM). This molecule also registered an MIC in the data set with Staphylococcus aureus [25] of 8 µg/mL (≈ 29.1 µM).

In the case of `CC(=O)CC(c1ccccc1)c1c(O)c2ccccc2oc1=O` (configuration not stated) [WARFARIN], the fraction unbound at 4 h, 2 µM in data set [26] and in [27] was 0.098 in each case.

These data come from ChEMBL document CHEMBL5104172, “Design, synthesis, and antibacterial activity of derivatives of Tryptophanyl-tRNA synthetase inhibitor indolmycin” (Eur J Med Chem, 2022).
